Results on 23 compounds are retold here after patent US9624182B2, “Compounds as lysophosphatidic acid receptor antagonists” (Amira Pharmaceuticals, Inc., priority 2009, dated 2017).

In the test the target is T1, human LPA1 (Homo sapiens, UniProt Q92633).
T1 construct: the full-length cDNA for human LPA1 was obtained by PCR of the reverse transcription reaction; expressed in transfected cells
Kind of test: LPA1 calcium flux assay. It is filed as cell-based. Conditions: CHO cells expressing human LPA1, stimulated with 10 nM LPA; read-out: HLPA1 Ca Flux IC50. Put shortly: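 Antagonism measured as block of 10 nM LPA-evoked calcium rise in stable human LPA1-CHO cells. After overnight serum-free culture and 1 h dye loading at 37 °C (buffer with 0.3% fatty-acid-free albumin), compound was added for 30 min at room temperature. Titration curves gave IC50.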
A general note: Calcium flux is commonly read through the fluorescence of an indicator in the cells.

The structures appear in SMILES notation. pIC50: −log10 of the molar value.

T1 sequence (Q92633 whole entry): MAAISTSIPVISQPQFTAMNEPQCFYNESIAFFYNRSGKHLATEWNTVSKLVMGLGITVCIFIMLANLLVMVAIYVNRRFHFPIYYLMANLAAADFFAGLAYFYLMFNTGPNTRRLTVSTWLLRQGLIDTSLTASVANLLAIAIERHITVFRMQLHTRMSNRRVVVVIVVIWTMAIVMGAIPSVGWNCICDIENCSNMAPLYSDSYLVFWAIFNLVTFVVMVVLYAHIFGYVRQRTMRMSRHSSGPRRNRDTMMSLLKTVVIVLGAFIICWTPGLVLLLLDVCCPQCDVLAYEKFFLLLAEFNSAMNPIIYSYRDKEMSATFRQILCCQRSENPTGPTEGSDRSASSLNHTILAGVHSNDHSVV

For `Cc1noc(-c2ccc(-c3ccc(C4(C(=O)O)CC4)cc3)cc2)c1C(=O)CCCc1ccccc1` [Compound 1-124, 1-{4′-[3-Methyl-4-(4-phenyl-butyryl)-isoxazol-5-yl]-biphenyl-4-yl}-cyclopropanecarboxylic acid], the negative-log IC50 (pIC50) (as a rule, the IC50 on a negative log10 scale, so that one unit is a factor of ten) is 4.30 to 6.00.
Next, `Cc1noc(-c2ccc(-c3ccc(C4(CC(=O)O)CC4)cc3)cc2)c1CSCCc1ccccc1` [Compound 1-125, {1-[4′-(3-Methyl-4-phenethylsulfanylmethyl-isoxazol-5-yl)-biphenyl-4-yl]-cyclopropyl}-acetic acid]: above 6.52; `Cc1noc(-c2ccc(-c3ccc(C4(C(=O)O)CC4)cc3)cc2)c1CCC(=O)N(C)C1CC1` [Compound 1-127, 1-(4′-{4-[2-(Cyclopropyl-methyl-carbamoyl)-ethyl]-3-methyl-isoxazol-5-yl}-biphenyl-4-yl)-cyclopropanecarboxylic acid]: 4.30 to 6.00.
The result for `Cc1noc(-c2ccc(-c3ccc(C(C)(C)C(=O)O)cc3)cc2)c1CSCCc1ccccc1` [Compound 1-133, 2-Methyl-2-[4′-(3-methyl-4-phenethylsulfanylmethyl-isoxazol-5-yl)-biphenyl-4-yl]-propionic acid] reads above 6.52; that for `Cc1noc(-c2ccc(-c3ccc(C4(C(=O)O)CC4)cc3)cc2)c1C/C(CCc1ccccc1)=N/O` [Compound 1-134, 1-[4′-(4-{2-[Hydroxyimino]-4-phenyl-butyl}-3-methyl-isoxazol-5-yl)-biphenyl-4-yl]-cyclopropanecarboxylic acid], above 6.52; that for `Cc1noc(-c2ccc(-c3ccc(C(C)C(=O)O)cc3)cc2)c1CC(F)(F)CCc1ccccc1` (centres unmarked) [Compound 1-136, 2-{4′-[4-(2,2-Difluoro-4-phenyl-butyl)-3-methyl-isoxazol-5-yl]-biphenyl-4-yl}-propionic acid], above 6.52.
The result for `Cc1noc(-c2ccc(-c3ccc(C(C(=O)O)C(C)C)cc3)cc2)c1CSCCc1ccccc1` (centres unmarked) [Compound 1-137, 3-Methyl-2-[4′-(3-methyl-4-phenethylsulfanylmethyl-isoxazol-5-yl)-biphenyl-4-yl]-butyric acid] reads above 6.52.
As for `CC(=O)N(Cc1ccccc1)CC(O)Cc1c(C)noc1-c1ccc(-c2ccc(C3(C(=O)O)CC3)cc2)cc1` (centres unmarked) [Compound 1-138, 1-(4′-{4-[3-(Acetyl-benzyl-amino)-2-hydroxy-propyl]-3-methyl-isoxazol-5-yl}-biphenyl-4-yl)-cyclopropanecarboxylic acid], the negative logarithm of the IC50 (pIC50) was 4.30 to 6.00.
As for `Cc1noc(-c2ccc(-c3ccc(C4(C(=O)O)CC4)cc3)cc2)c1/C=C/CN(Cc1ccccc1)S(C)(=O)=O` [Compound 1-139, 1-(4′-{4-[3-(Benzyl-methanesulfonyl-amino)-propenyl]-3-methyl-isoxazol-5-yl}-biphenyl-4-yl)-cyclopropanecarboxylic acid], the pIC50 was above 6.52.
Next, `Cc1noc(-c2ccc(-c3ccc(C4(CC(=O)O)CC4)cc3)cc2)c1C(O)CCCc1ccccc1` (centres unmarked) [Compound 1-140, (1-{4′-[4-(1-Hydroxy-4-phenyl-butyl)-3-methyl-isoxazol-5-yl]-biphenyl-4-yl}-cyclopropyl)-acetic acid]: above 6.52; `CC(=O)N(CCc1c(C)noc1-c1ccc(-c2ccc(C3(C(=O)O)CC3)cc2)cc1)Cc1ccccc1` [Compound 1-142, 1-(4′-{4-[2-(Acetyl-benzyl-amino)-ethyl]-3-methyl-isoxazol-5-yl}-biphenyl-4-yl)-cyclopropanecarboxylic acid]: 4.30 to 6.00.
As for `Cc1noc(-c2ccc(-c3ccc(C4(C(=O)O)CC4)cc3)cc2)c1CCN(Cc1ccccc1)S(C)(=O)=O` [Compound 1-143, 1-(4′-{4-[2-(Benzyl-methanesulfonyl-amino)-ethyl]-3-methyl-isoxazol-5-yl}-biphenyl-4-yl)-cyclopropanecarboxylic acid], the pIC50 was 4.30 to 6.00.
The result for `Cc1noc(-c2ccc(-c3ccc(C(Cc4ccccc4)C(=O)O)cc3)cc2)c1CSCCc1ccccc1` (centres unmarked) [Compound 1-145, 2-[4′-(3-Methyl-4-phenethylsulfanylmethyl-isoxazol-5-yl)-biphenyl-4-yl]-3-phenyl-propionic acid] reads above 6.52.
The result for `CCOC(CCCc1ccccc1)c1c(C)noc1-c1ccc(-c2ccc(C3(C(=O)O)CC3)cc2)cc1` (centres unmarked) [Compound 1-147, 1-{4′-[4-(1-Ethoxy-4-phenyl-butyl)-3-methyl-isoxazol-5-yl]-biphenyl-4-yl}-cyclopropanecarboxylic acid] reads 6.00 to 6.52; that for `COC(CCCc1ccccc1)c1c(C)noc1-c1ccc(-c2ccc(C3(C(=O)O)CC3)cc2)cc1` (centres unmarked) [Compound 1-148, 1-{4′-[4-(1-Methoxy-4-phenyl-butyl)-3-methyl-isoxazol-5-yl]-biphenyl-4-yl}-cyclopropanecarboxylic acid], above 6.52; that for `Cc1noc(-c2ccc(-c3ccc(C4(C(=O)O)CC4)cc3)cc2)c1NCCC(C)(C)C` [Compound 1-151, 1-{4′-[4-(3,3-Dimethyl-butylamino)-3-methyl-isoxazol-5-yl]-biphenyl-4-yl}-cyclopropanecarboxylic acid], 6.00 to 6.52.
Next, `Cc1noc(-c2ccc(-c3ccc(C4(C(=O)O)CC4)cc3)cc2)c1CO` [Compound 1-152, 1-[4′-(4-Hydroxymethyl-3-methyl-isoxazol-5-yl)-biphenyl-4-yl]-cyclopropanecarboxylic acid]: 4.30 to 6.00.
For the compound `Cc1noc(-c2ccc(-c3ccc(C4(C(=O)O)CC4)cc3)cc2)c1C(=O)CCc1ccccc1` [Compound 1-157, 1-{4′-[3-Methyl-4-(3-phenyl-propionyl)-isoxazol-5-yl]-biphenyl-4-yl}-cyclopropanecarboxylic acid], the pIC50 was 4.30 to 6.00.
With `Cc1noc(-c2ccc(-c3ccc(C4(C(=O)O)CC4)cc3)cc2)c1C(O)/C=C/c1ccccc1` (centres unmarked) [Compound 1-158, 1-{4′-[4-((E)-1-Hydroxy-3-phenyl-allyl)-3-methyl-isoxazol-5-yl]-biphenyl-4-yl}-cyclopropanecarboxylic acid], the pIC50 was above 6.52.
As to `Cc1noc(-c2ccc(-c3ccc(C4(C(=O)O)CC4)cc3)cc2)c1C(=O)CCc1cccc(C(F)(F)F)c1` [Compound 1-160, 1-(4′-{3-Methyl-4-[3-(3-trifluoromethyl-phenyl)-propionyl]-isoxazol-5-yl}-biphenyl-4-yl)-cyclopropanecarboxylic acid], the pIC50 was 4.30 to 6.00.
The result for `Cc1noc(-c2ccc(-c3ccc(C4(C(=O)O)CC4)cc3)cc2)c1C(O)/C=C/c1cccc(C(F)(F)F)c1` (centres unmarked) [Compound 1-161, 1-(4′-{4-[(E)-1-Hydroxy-3-(3-trifluoromethyl-phenyl)-allyl]-3-methyl-isoxazol-5-yl}-biphenyl-4-yl)-cyclopropanecarboxylic acid] reads above 6.52.
In the case of `Cc1noc(-c2ccc(-c3ccc(CC(=O)O)cc3)cc2)c1NC(C)CCc1cccc(F)c1` (centres unmarked) [Compound 1-165, (4′-{4-[3-(3-Fluoro-phenyl)-1-methyl-propylamino]-3-methyl-isoxazol-5-yl}-biphenyl-4-yl)-acetic acid], the pIC50 is above 6.52.
`CCCC(O)c1c(C)noc1-c1ccc(-c2ccc(C3(C(=O)O)CC3)cc2)cc1` (centres unmarked) [Compound 1-166, 1-{4′-[4-(1-Hydroxy-butyl)-3-methyl-isoxazol-5-yl]-biphenyl-4-yl}-cyclopropanecarboxylic acid]: the pIC50 is 4.30 to 6.00.
